Test results as given in patent publication US20100285959A1, “HERBICIDAL MIXTURES” (priority 2006, published 2010).

Tests used:
spring wheat (TRZAS) = assay: Test 4 field trial, postemergence; conditions: clodinafop 56 or fenoxaprop 90 g a.i./ha alone
Method: (§1) A field trial was conducted to evaluate the effects of mixtures of Compound 2 with commercial herbicides on spring wheat (TRZAS, Triticum aestivum L.) and several weed species. Wheat seeds (cv. ‘AC Intrepid’) were planted in late spring season, 3.8 cm deep in a loam soil having 2.7% organic matter and a pH of 7. Plots were 6 m long by 2.5 m wide. The field was managed using no-till practices. The plots were arranged in a randomized complete block design with each treatment being replicated four times. Treatments were applied postemergence 25 days after planting using a backpack sprayer delivering a spray volume of 55 L/ha using a pressure of 276 kPa. […] Compound 2 and clodinafop treatments, alone and in combination, also included a surfactant. Weed species present in the experimental plots in sufficient quantity to be evaluated included wild oat (AVEFA, Avena fatua L.), common lambsquarters (CHEAL, Chenopodium album L.), kochia (KCHSC, Kochia scoparia (L.) Schrad.), wild buckwheat (POLCO, Polygonum convolvulus L.), Russian thistle (SASKR, Salsola kali L. ssp. ruthenica (Iljin) Soo), and field pennycress (THLAR, Thlaspi arvense L.). […] Common lambsquarters was evaluated only at 14 days after application. […] Results are the means of the four replicates.

wild oat (AVEFA) = assay: Test 4 field trial, postemergence; assay type: in vivo, Avena fatua; parameters: scale not given here; conditions: clodinafop 56 or fenoxaprop 90 g a.i./ha alone
Method: as §1

[1] = system: common lambsquarters (CHEAL); assay: Test 4 field trial, postemergence; assay type: in vivo, Chenopodium album; conditions: clodinafop 56 or fenoxaprop 90 g a.i./ha alone
wild buckwheat (POLCO) = assay: Test 4 field trial, postemergence; assay type: in vivo, Polygonum convolvulus; conditions: clodinafop 56 or fenoxaprop 90 g a.i./ha alone
Method: as §1

Russian thistle (SASKR) = assay: Test 4 field trial, postemergence; assay type: in vivo, Salsola kali; parameters: scale not given here; conditions: clodinafop 56 or fenoxaprop 90 g a.i./ha alone
Method: as §1

field pennycress (THLAR) = assay: Test 4 field trial, postemergence; assay type: in vivo, Thlaspi arvense; parameters: scale not given here; conditions: clodinafop 56 or fenoxaprop 90 g a.i./ha alone
Method: as §1

corn (ZEAMD) = assay: Test 28 greenhouse, post- and preemergence; assay type: in vivo, Zea mays ssp. indentata; conditions: 26 DAA
Method: (§2) A greenhouse test was conducted to evaluate the effects on the plant species corn (ZEAMD, Zea mays ssp. indentata), sorghum (SORVU, Sorghum vulgare L.), dry-seeded rice (ORYSA, Oryza sativa L.), wheat (TRZAW, Triticum aestivum L.), ivyleaf morningglory (IPOHE, Ipomoea hederacea (L.) JACQ.), and barnyardgrass (ECHCG, Echinochloa crus-galli (L.) P. BEAUV.), of mixtures of Compound 2 with isoxadifen-ethyl. Corn, sorghum, rice, wheat, ivyleaf morningglory and barnyardgrass seeds were planted in RediEarth, a commercial potting medium. […] Corn plants were treated postemergence at the V2 growth stage, and sorghum, rice, wheat, ivyleaf morningglory, and barnyardgrass plants were treated postemergence at the 3-leaf stage. […] Each treatment was replicated three times. […] Plants were watered as needed.

sorghum (SORVU) = assay: Test 28 greenhouse, postemergence; assay type: in vivo, Sorghum vulgare; conditions: 26 DAA
Method: as §2

dry-seeded rice (ORYSA) = assay: Test 28 greenhouse, postemergence; assay type: in vivo, Oryza sativa; conditions: 26 DAA
Method: as §2

wheat (TRZAW) = assay: Test 28 greenhouse, post- and preemergence; assay type: in vivo, Triticum aestivum; conditions: 26 DAA
Method: as §2

[2] = system: ivyleaf morningglory (IPOHE); assay: Test 28 greenhouse, postemergence; assay type: in vivo, Ipomoea hederacea; conditions: 26 DAA
Method: as §2

barnyardgrass (ECHCG) [3] = assay: Test 28 greenhouse, postemergence; assay type: in vivo, Echinochloa crus-galli; conditions: 26 DAA
Method: as §2

ducksalad (HETLI) = assay: Test 32 greenhouse, simulated flooded rice culture; assay type: in vivo, Heteranthera limosa; parameters: scale not given here; conditions: postemergence to flood, 21 DAA
Method: (§3) A greenhouse trial was conducted to evaluate the effects of Compound 1 and isoxadifen-ethyl at different ratios in simulated flooded rice culture. Plastic pots (11-cm diameter) were partially filled with non-sterilized Tama silt loam soil containing a 15:57:28 ratio of sand, silt and clay and 2.9% organic matter. Seeds of Heteranthera limosa (ducksalad; HETLI), Cyperus difformis (smallflower umbrella sedge; CYPDI), one stand of Echinochloa crus-galli (barnyardgrass; ECHCG), and one stand of four rice seedlings (Oryza sativa cv. ‘M202’; ORYSA) were planted into a single 11-cm diameter pot for each rate and mixture of rates. To obtain this planting, C. difformis and H. limosa seeds were planted separately on the surface soil layer at particular locations within each pot. Water levels were brought to a puddled condition above the soil surface directly after planting. E. crus-galli and rice seeds were planted in cavity trays in the silt loam soil and transplanted at the 1.5 and 2.0 leaf stage, respectively. E. crus-galli and rice plants were transplanted to about 2-cm depth by transferring plugs from the cavity trays. Plantings were sequential so that these plant species all reached the 2.0- to 2.5-leaf stage in the 11-cm diameter pot at time of treatment. Plantings were established and maintained in a greenhouse with day and night temperatures of about 29.5 and 26.7° C. respectively; supplemental balanced lighting was provided to maintain a 16-hour photoperiod. Pots were fertilized periodically with a 200 ppm solution of commercial Scotts Peters® Professional® General Purpose 20-20-20 Water Soluble Fertilizer, amended to 10 ppm with a commercial iron-chelate micronutrient fertilizer. The solution was supplied at time of watering via a liquid fertilizer injector.
(§4) At treatment time, test pots were flooded to 3 cm above the soil surface and maintained at that water depth for the duration of the test. Chemical treatments were formulated in acetone and applied directly to the paddy water (i.e., postemergence to flood). Make-up volumes of acetone were added to ensure that all pots were treated with a consistent volume. Test pots were maintained in the greenhouse. A randomized complete block design was employed. Five replicates of each treatment, alone and in mixture, were used. Each species was visually evaluated for treatment effects by comparing those treated to untreated controls and rated for plant response after 21 days.

[4] = system: smallflower umbrella sedge (CYPDI); assay: Test 32 greenhouse, simulated flooded rice culture; assay type: in vivo, Cyperus difformis; conditions: postemergence to flood, 21 DAA
Method: as §3, §4

barnyardgrass (ECHCG) [5] = assay: Test 32 greenhouse, simulated flooded rice culture; assay type: in vivo, Echinochloa crus-galli; parameters: scale not given here; conditions: postemergence to flood, 21 DAA
Method: as §3, §4

rice (ORYSA) = assay: Test 32 greenhouse, simulated flooded rice culture; assay type: in vivo, Oryza sativa; conditions: postemergence to flood, 21 DAA
Method: as §3, §4

[6] = postemergence, Isoxadifen-ethyl 64 g a.i./ha
[7] = postemergence, Isoxadifen-ethyl 128 g a.i./ha
[8] = postemergence, Isoxadifen-ethyl 256 g a.i./ha
[9] = postemergence, Isoxadifen-ethyl 512 g a.i./ha
[10] = postemergence, Isoxadifen-ethyl 1024 g a.i./ha
[11] = preemergence, Isoxadifen-ethyl 64 g a.i./ha
[12] = preemergence, Isoxadifen-ethyl 128 g a.i./ha
[13] = preemergence, Isoxadifen-ethyl 256 g a.i./ha
[14] = preemergence, Isoxadifen-ethyl 512 g a.i./ha
[15] = preemergence, Isoxadifen-ethyl 1024 g a.i./ha
[16] = Isoxadifen-ethyl 1024 g a.i./ha
[17] = Isoxadifen-ethyl 31.25 g a.i./ha
[18] = Isoxadifen-ethyl 62.5 g a.i./ha
[19] = Isoxadifen-ethyl 1000 g a.i./ha
[20] = Isoxadifen-ethyl 1500 g a.i./ha

`CC(Oc1ccc(Oc2nc3ccc(Cl)cc3o2)cc1)C(=O)O` (stereo not shown) [Fenoxaprop] was tested, and the “TRZAS Obs” value (spring wheat (TRZAS); 14 DAA) was 0, the “TRZAS Obs” value (spring wheat (TRZAS); 35 DAA) was 0 and the “TRZAS Obs” value (spring wheat (TRZAS); 55 DAA) was 0. For the same compound, the “AVEFA Obs” value (wild oat (AVEFA); 14 DAA) was 96, the “AVEFA Obs” value (wild oat (AVEFA); 35 DAA) was 96 and the “AVEFA Obs” value (wild oat (AVEFA); 55 DAA) was 98. The “CHEAL Obs” value ([1]; 14 DAA) was 0, the “CHEAL Obs” value ([1]; 35 DAA) was 0 and the “POLCO Obs” value (wild buckwheat (POLCO); 14 DAA) was 0. For the same compound, the “POLCO Obs” value (wild buckwheat (POLCO); 35 DAA) was 0, the “SASKR Obs” value (Russian thistle (SASKR); 14 DAA) was 0 and the “SASKR Obs” value (Russian thistle (SASKR); 35 DAA) was 0. For the same compound, the “THLAR Obs” value (field pennycress (THLAR); 14 DAA) was 0 and the “THLAR Obs” value (field pennycress (THLAR); 35 DAA) was 0.

For `CCOC(=O)C1=NOC(c2ccccc2)(c2ccccc2)C1` [Isoxadifen-ethyl], the “ZEAMD Obs” value (corn (ZEAMD); [6]) was 0, the “ZEAMD Obs” value (corn (ZEAMD); [7]) was 0 and the “ZEAMD Obs” value (corn (ZEAMD); [8]) was 0. For the same compound, the “ZEAMD Obs” value (corn (ZEAMD); [9]) was 0, the “ZEAMD Obs” value (corn (ZEAMD); [10]) was 0 and the “ZEAMD Obs” value (corn (ZEAMD); [11]) was 0. The “ZEAMD Obs” value (corn (ZEAMD); [12]) was 0, the “ZEAMD Obs” value (corn (ZEAMD); [13]) was 0 and the “ZEAMD Obs” value (corn (ZEAMD); [14]) was 0. The “ZEAMD Obs” value (corn (ZEAMD); [15]) was 0, the SORVU Obs (sorghum (SORVU); Isoxadifen-ethyl 64 g a.i./ha) was 0% and the SORVU Obs (sorghum (SORVU); Isoxadifen-ethyl 128 g a.i./ha) was 0%. For the same compound, the SORVU Obs (sorghum (SORVU); Isoxadifen-ethyl 256 g a.i./ha) was 0%, the SORVU Obs (sorghum (SORVU); Isoxadifen-ethyl 512 g a.i./ha) was 0% and the SORVU Obs (sorghum (SORVU); [16]) was 0%. For the same compound, the “ORYSA Obs” value (dry-seeded rice (ORYSA); Isoxadifen-ethyl 64 g a.i./ha) was 0, the “ORYSA Obs” value (dry-seeded rice (ORYSA); Isoxadifen-ethyl 128 g a.i./ha) was 0 and the “ORYSA Obs” value (dry-seeded rice (ORYSA); Isoxadifen-ethyl 256 g a.i./ha) was 0. For the same compound, the “ORYSA Obs” value (dry-seeded rice (ORYSA); Isoxadifen-ethyl 512 g a.i./ha) was 0, the “ORYSA Obs” value (dry-seeded rice (ORYSA); [16]) was 0 and the TRZAW Obs (wheat (TRZAW); [6]) was 0%. The TRZAW Obs (wheat (TRZAW); [7]) was 0%, the TRZAW Obs (wheat (TRZAW); [8]) was 0% and the TRZAW Obs (wheat (TRZAW); [9]) was 0%. For the same compound, the TRZAW Obs (wheat (TRZAW); [10]) was 0%, the TRZAW Obs (wheat (TRZAW); [11]) was 0% and the TRZAW Obs (wheat (TRZAW); [12]) was 0%. The TRZAW Obs (wheat (TRZAW); [13]) was 0%, the TRZAW Obs (wheat (TRZAW); [14]) was 0% and the TRZAW Obs (wheat (TRZAW); [15]) was 0%. The “IPOHE Obs” value ([2]; Isoxadifen-ethyl 64 g a.i./ha) was 0, the “IPOHE Obs” value ([2]; Isoxadifen-ethyl 128 g a.i./ha) was 0 and the “IPOHE Obs” value ([2]; Isoxadifen-ethyl 256 g a.i./ha) was 0. The “IPOHE Obs” value ([2]; Isoxadifen-ethyl 512 g a.i./ha) was 0, the “IPOHE Obs” value [2, 16] was 0 and the “ECHCG Obs” value (barnyardgrass (ECHCG) [3]; Isoxadifen-ethyl 64 g a.i./ha) was 0. The “ECHCG Obs” value (barnyardgrass (ECHCG) [3]; Isoxadifen-ethyl 128 g a.i./ha) was 0, the “ECHCG Obs” value (barnyardgrass (ECHCG) [3]; Isoxadifen-ethyl 256 g a.i./ha) was 0 and the “ECHCG Obs” value (barnyardgrass (ECHCG) [3]; Isoxadifen-ethyl 512 g a.i./ha) was 0. The “ECHCG Obs” value (barnyardgrass (ECHCG) [3]; [16]) was 0, the “HETLI Obs” value (ducksalad (HETLI); [17]) was 10 and the “HETLI Obs” value (ducksalad (HETLI); [18]) was 29. For the same compound, the “HETLI Obs” value (ducksalad (HETLI); Isoxadifen-ethyl 125 g a.i./ha) was 35, the “HETLI Obs” value (ducksalad (HETLI); Isoxadifen-ethyl 250 g a.i./ha) was 19 and the “HETLI Obs” value (ducksalad (HETLI); Isoxadifen-ethyl 500 g a.i./ha) was 23. The “HETLI Obs” value (ducksalad (HETLI); [19]) was 25, the “HETLI Obs” value (ducksalad (HETLI); [20]) was 36 and the “CYPDI Obs” value [4, 17] was 28. For the same compound, the “CYPDI Obs” value [4, 18] was 24, the “CYPDI Obs” value ([4]; Isoxadifen-ethyl 125 g a.i./ha) was 84 and the “CYPDI Obs” value ([4]; Isoxadifen-ethyl 250 g a.i./ha) was 59. For the same compound, the “CYPDI Obs” value ([4]; Isoxadifen-ethyl 500 g a.i./ha) was 49, the “CYPDI Obs” value [4, 19] was 53 and the “CYPDI Obs” value [4, 20] was 59. The “ECHCG Obs” value (barnyardgrass (ECHCG) [5]; [17]) was 4, the “ECHCG Obs” value (barnyardgrass (ECHCG) [5]; [18]) was 9 and the “ECHCG Obs” value (barnyardgrass (ECHCG) [5]; Isoxadifen-ethyl 125 g a.i./ha) was 15. The “ECHCG Obs” value (barnyardgrass (ECHCG) [5]; Isoxadifen-ethyl 250 g a.i./ha) was 10, the “ECHCG Obs” value (barnyardgrass (ECHCG) [5]; Isoxadifen-ethyl 500 g a.i./ha) was 5 and the “ECHCG Obs” value (barnyardgrass (ECHCG) [5]; [19]) was 8. For the same compound, the “ECHCG Obs” value (barnyardgrass (ECHCG) [5]; [20]) was 9, the ORYSA Obs (rice (ORYSA); [17]) was 2% and the ORYSA Obs (rice (ORYSA); [18]) was 5%. The ORYSA Obs (rice (ORYSA); Isoxadifen-ethyl 125 g a.i./ha) was 11%, the ORYSA Obs (rice (ORYSA); Isoxadifen-ethyl 250 g a.i./ha) was 7% and the ORYSA Obs (rice (ORYSA); Isoxadifen-ethyl 500 g a.i./ha) was 5%. It also gave an ORYSA Obs (rice (ORYSA); [19]) of 5% and an ORYSA Obs (rice (ORYSA); [20]) of 10%.
